Measured values: ChEMBL document CHEMBL3745645, “Synthesis, in vitro antitumor activity, dihydrofolate reductase inhibition, DNA intercalation and structure-activity relationship studies of 1,3,5-triazine analogues” (Bioorg Med Chem Lett, 2016)
The source made the active and inactive calls. No cut-off for these calls is given here.

Columns and labels:
[1] = test system: UO-31; experiment: Cytotoxicity against human UO31 cells at 10 uM after 48 hrs by SRB assay; assay type: functional
[2] = test system: Hs-578T; experiment: Cytotoxicity against human Hs 578T cells at 10 uM after 48 hrs by SRB assay; assay type: functional
[3] = test system: COLO 205; experiment: Cytotoxicity against human COLO205 cells at 10 uM after 48 hrs by SRB assay; assay type: functional
[4] = test system: HCT-116; experiment: Cytotoxicity against human HCT116 cells at 10 uM after 48 hrs by SRB assay; assay type: functional
[5] = test system: SF-539; experiment: Cytotoxicity against human SF539 cells at 10 uM after 48 hrs by SRB assay; assay type: functional
[6] = test system: LOX IMVI; experiment: Cytotoxicity against human LOXIMVI cells at 10 uM after 48 hrs by SRB assay; assay type: functional
[7] = test system: OVCAR-3; experiment: Cytotoxicity against human OVCAR3 cells at 10 uM after 48 hrs by SRB assay; assay type: functional
[8] = test system: Calf thymus DNA; experiment: Binding affinity to calf thymus DNA at 25 uM by UV-vis spectrometric analysis; assay type: nucleic-acid assay; settings: Bos taurus
[9] = test system: CAKI-1; experiment: Cytotoxicity against human Caki1 cells at 10 uM after 48 hrs by SRB assay; assay type: functional
[10] = test system: DU-145; experiment: Cytotoxicity against human DU145 cells at 10 uM after 48 hrs by SRB assay; assay type: functional
[11] = test system: HOP-62; experiment: Cytotoxicity against human HOP62 cells at 10 uM after 48 hrs by SRB assay; assay type: functional
[12] = test system: HOP-92; experiment: Cytotoxicity against human HOP92 cells at 10 uM after 48 hrs by SRB assay; assay type: functional
[13] = test system: SW-620; experiment: Cytotoxicity against human SW620 cells at 10 uM after 48 hrs by SRB assay; assay type: functional
[14] = test system: SF-268; experiment: Cytotoxicity against human SF268 cells at 10 uM after 48 hrs by SRB assay; assay type: functional
[15] = test system: IGROV-1; experiment: Cytotoxicity against human IGROV1 cells at 10 uM after 48 hrs by SRB assay; assay type: functional
[16] = test system: OVCAR-8; experiment: Cytotoxicity against human OVCAR8 cells at 10 uM after 48 hrs by SRB assay; assay type: functional
[17] = test system: NCI/ADR-RES; experiment: Cytotoxicity against human NCI-ADR-RES cells at 10 uM after 48 hrs by SRB assay; assay type: functional
[18] = test system: SK-OV-3; experiment: Cytotoxicity against human SKOV3 cells at 10 uM after 48 hrs by SRB assay; assay type: functional
[19] = Cytotoxicity against human HL-60(TB) cells at 10 uM after 48 hrs by SRB assay; assay type: functional; settings: HL-60, 48 h, read-out: GI

Cc1nc2cc(Nc3nc(Nc4ccc(F)cc4)nc(N4CCN(C)CC4)n3)ccc2n1Cc1ccccc1
growth inhibition (GI) [1]: Active | growth inhibition (GI) [2]: Active | growth inhibition (GI) [3]: Active | growth inhibition (GI) [4]: Active | growth inhibition (GI) [5]: Active | growth inhibition (GI) [6]: Active | growth inhibition (GI) [7]: Active

Cc1nc2ccc(Nc3nc(NCCN4CCOCC4)nc(Nc4ccc(F)cc4)n3)cc2n1Cc1ccccc1
Activity [8]: Active

Cc1nc2cc(Nc3nc(Nc4ccc(F)cc4)nc(N4CCCC4)n3)ccc2n1Cc1ccccc1
growth inhibition (GI) [9]: Active | growth inhibition (GI) [1]: Active | growth inhibition (GI) [10]: Active | growth inhibition (GI) [11]: Active | growth inhibition (GI) [12]: Active | growth inhibition (GI) [3]: Active | growth inhibition (GI) [4]: Active | growth inhibition (GI) [13]: Active | growth inhibition (GI) [14]: Active | growth inhibition (GI) [5]: Active | growth inhibition (GI) [6]: Active | growth inhibition (GI) [15]: Active | growth inhibition (GI) [7]: Active | growth inhibition (GI) [16]: Active | growth inhibition (GI) [17]: Active | growth inhibition (GI) [18]: Active

Cc1nc2cc(Nc3nc(Nc4ccc(F)cc4)nc(-c4cccs4)n3)ccc2n1Cc1ccccc1
inhibition of growth at 10 µM [19]: 71.9%
